Results taken from patent publication US20230133910A1, “NEW METHOD FOR DETECTING AND QUANTIFYING RNA” (EAST CHINA UNIVERSITY OF SCIENCE AND TECHNOLOGY, priority 2020, published 2023).

Columns and labels:
Carrot-1 RNA aptamer = assay: Properties of Carrot-1 RNA aptamer with different fluorophores (spectra, extinction coefficient, quantum yield, activation fold); format: biochemical; conditions: for Emmax / Exmax / Extinction coefficient / Quantum yield: fluorophore bound to Carrot-1 RNA aptamer; for Activation fold: fluorophore with Carrot-1 RNA aptamer versus fluorophore alone
Protocol: (§1) (5) Function detection of nucleic acid aptamers Carrot or Carrot mutant nucleic acid aptamer molecules were prepared according to common experimental method (I), 5 μM of nucleic acid aptamer molecules and 1 μM of fluorophore molecules were incubated in detection buffer (40 mM HEPES, pH 7.4, 125 mM KCl, 5 mM MgCl2, 5% DMSO), and Synergy Neo2 multifunctional microplate reader was used for detecting and obtaining the maximum excitation peak and the maximum emission peak of the fluorescence of the nucleic acid aptamer-fluorophore molecule complex. The Synergy Neo2 multifunctional microplate reader was used again for detecting the fluorescence intensity of the aptamer-fluorophore molecule complex under its maximum excitation and emission conditions. Control sample (1 μM of fluorophore molecules without nucleic acid aptamer) was measured under the same condition, and the ratio of fluorescence intensity was calculated. […] By using Synergy Neo2 multifunctional microplate reader, it was detected that the fluorescence intensity of the complex was 5720 when it was excited at 524±10 nm and emitted under the emission condition of 580 nm±10 nm, while fluorescence intensity of the control sample (1 μM of IV-39 fluorophore molecules) under the same detection condition was 20, so the activation multiple of Carrot-1 nuclear acid aptamer to IV-39 fluorophore molecule was 286.
In order to detect the spectral properties of the Carrot-IV-39 complex, Carrot-1 (SEQ ID NO: 2) RNA was prepared according to the commonly used experimental method (1). 1 μM IV-39 with 5 μM Carrot-1 was incubated.
Carrot-1 RNA aptamer was prepared according to the commonly used experimental methods (1), and was used to detect the properties of IV-39 analogues upon Carrot binding, including the fluorescence spectrum, extinction coefficient, quantum yield and fluorescence activation fold. From the data shown in the table, Carrot-1 still could activate the fluorescence of IV-39 analogues.

[1] = Fluorescence activation of IV-39 by base-modified Carrot; format: biochemical; conditions: control buffer
Protocol: as §1, with “286. […]” for “286.”

Molecule	Emmax (Carrot-1 RNA aptamer) [nm]	Exmax (Carrot-1 RNA aptamer) [nm]	Extinction coefficient (Carrot-1 RNA aptamer) [M⁻¹ cm⁻¹]	Quantum yield (Carrot-1 RNA aptamer)	Activation fold (Carrot-1 RNA aptamer) [fold]	activation of the fluorescence of IV-39 fluorophore [1]
CN1C(=O)/C(=C/c2cc(F)c(O)c(F)c2)N=C1/C=C/c1cccc(O)c1 [Carrot-1-IV-4]	574	490	23000	0.37	191	
CN1C(=S)/C(=C/c2cc(F)c(O)c(F)c2)N=C1/C=C/c1ccc(F)cc1 [Carrot-1-IV-7]	598	514	24000	0.27	201	
CN1C(=S)/C(=C/c2cc(F)c(O)c(F)c2)N=C1/C=C/c1ccc(C#N)cc1 [Carrot-1-IV-8]	638	534	22500	0.21	68	
CC(C)CN1C(=O)/C(=C/c2cc(F)c(O)c(Br)c2)N=C1/C=C/c1ncc(C#N)cn1 [Carrot-1-IV-11]	614	507	21000	0.05	16	
CN1C(=O)/C(=C/c2cc(Br)c(O)c(Br)c2)N=C1/C=C/c1ccc(F)cc1 [Carrot-1-IV-16]	587	485	22000	0.08	34	
C=CCOCCN(C)c1ccc(/C=C2N=C(/C=C/c3ccccc3C#N)N(C)C\2=S)cc1 [Carrot-1-IV-23]	648	547	19000	0.12	57	
CCCN1C(=S)/C(=C/c2ccc(N(C)C)nc2)N=C1/C=C/c1ccccc1F [Carrot-1-IV-24]	615	498	21000	0.09	45	
CN1C(=O)/C(=C/c2cnc(N(C)CCC#N)nc2)N=C1/C=C/c1ccccc1I [Carrot-1-IV-27]	576	472	19000	0.09	57	
CN1CCc2cc(/C=C3N=C(/C=C/c4ccc(Br)nc4)N(CC(F)(F)F)C\3=O)ccc21 [Carrot-1-IV-30]	588	485	19000	0.05	15	
COCCOCCOCCOCC(=O)OCCN(C)c1ccc(/C=C2N=C(/C=C/c3ccc(C#N)cc3)N(C)C\2=O)cc1 [Carrot-1-IV-31]	621	508	24000	0.15	75	
CN(C)CCN(C)c1ccc(/C=C2N=C(/C=C/c3cccc(F)c3)N(C)C\2=O)cc1 [Carrot-1-IV-34]	581	515	29000	0.38	287	
CN1C(=O)/C(=C/c2ccc(N)cc2)N=C1/C=C/c1ccc(C#N)cc1 [Carrot-1-IV-35]	619	527	21000	0.14	97	
C#CCOCCN(C)c1ccc(/C=C2N=C(/C=C/c3ccc(F)cc3)N(C)C\2=O)cc1 [Carrot-1-IV-36]	578	511	22000	0.28	262	
CN1C(=O)/C(=C/c2cc(F)c(O)c(F)c2)N=C1/C=C/c1ccccn1 [Carrot-1-IV-38]	581	519	26000	0.31	257	
Carrot-3: base-modified Carrot, SEQ ID NO: 5, GGGAAGATTGTAAACACGCCGAAAGGCGGACACTTCCC containing deoxyribonucleotide bases (GGGAAGAUUGUAAACACGCCGAAAGGCGGACACUUCCC; some positions are deoxyribonucleotides, which ones are not given here in text)						significantly activate
Carrot-4: base-modified Carrot, SEQ ID NO: 6, GGGAAGATTGTAAACACGCCGAAAGGCGGACACTTCCC containing 2′-F modification (GGGAAGAUUGUAAACACGCCGAAAGGCGGACACUUCCC; some positions carry 2'-F, which ones are not given here in text)						significantly activate

Further lines, with some results ahead:

Emmax (Carrot-1 RNA aptamer) [nm]	Exmax (Carrot-1 RNA aptamer) [nm]	Extinction coefficient (Carrot-1 RNA aptamer) [M⁻¹ cm⁻¹]	Quantum yield (Carrot-1 RNA aptamer)	Molecule	Activation fold (Carrot-1 RNA aptamer) [fold]	activation of the fluorescence of IV-39 fluorophore [1]
577	482	19000	0.03	COCCOCCOCCOCCN1C(=O)/C(=C/c2cc(F)c(O)c(I)c2)N=C1/C=C/c1ccc(Cl)cc1 [Carrot-1-IV-12]	6	
579	478	20000	0.02	CNC(=O)CN1C(=O)/C(=C/c2cc(Cl)c(O)c(Cl)c2)N=C1/C=C/c1ccc(Br)cc1 [Carrot-1-IV-13]	5	
585	482	21000	0.02	C#CCN1C(=O)/C(=C/c2ccc(O)c(Cl)c2)N=C1/C=C/c1ccc(I)cc1 [Carrot-1-IV-14]	6	
578	480	21000	0.03	O=C1/C(=C/c2ccc(O)c(Br)c2)N=C(/C=C/c2cccc(Cl)c2)N1CCO [Carrot-1-IV-15]	7	
582	524	32000	0.47	CN1C(=O)/C(=C/c2ccc(N(C)CCO)cc2)N=C1/C=C/c1cccc(O)c1 [Carrot-1-IV-17]	282	
590	522	30000	0.43	CN1C(=O)/C(=C/c2ccc(N(C)CCO)cc2)N=C1/C=C/c1cccc(F)c1 [Carrot-1-IV-19]	331	
580	522	32000	0.46	CN1C(=O)/C(=C/c2ccc(N(C)CCO)cc2)N=C1/C=C/c1ccc(F)cc1 [Carrot-1-IV-22]	301	
574	475	18000	0.02	CCN(CC)c1ccc(/C=C2N=C(/C=C/c3ccc(Cl)cc3)N(CC(=O)OC)C\2=O)nc1 [Carrot-1-IV-25]	4	
579	476	19000	0.04	CN1CCc2cc(/C=C3N=C(/C=C/c4ccc(F)nc4)N(CCO)C\3=O)ccc21 [Carrot-1-IV-28]	19	
619	531	27000	0.26	CN1C(=O)/C(=C/c2ccc(N(C)CCS(=O)(=O)O)cc2)N=C1/C=C/c1ccc(C#N)cc1 [Carrot-1-IV-29]	87	
591	489	22000	0.11	COC(=O)CNCCN(C)c1ccc(/C=C2N=C(/C=C/c3ccc(Br)cc3)N(C)C\2=O)cc1 [Carrot-1-IV-32]	64	
592	519	28000	0.38	CN1C(=O)/C(=C/c2ccc(N(C)CCN)cc2)N=C1/C=C/c1cccc(F)c1 [Carrot-1-IV-33]	287	
